{"source": "patent US6835867B1", "about": "“Allelic series of genomic modifications in cells” (priority 1998, dated 2004)", "key": {"[1]": {"test_system": "Mouse ES cells (129/Sv+Tyr, +p)", "assay": "Survival of ES cells after 5 hour ENU treatment (colony counting)", "format": "cell-based", "settings": "for survival: 5 hours, counted after 3 days of culture", "description": "Mouse ES cells (129/Sv+^Tyr, +^p) were used. Cells were grown in culture medium [MEM (Gibco) supplemented with 15% heat-inactivated fetal calf serum, LIF, and 10 μM β-mercaptoethanol. Cells were routinely grown on 100-mm petri dishes and cultivated at 37° C. in a humidified atmosphere of 5% CO2 in air. For subculturing, cells were disassociated with HBSS containing 0.25% trypsin and 0.02% EDTA. After a 3-minute incubation at room temperature, cells were resuspended in culture medium and cell numbers determined using a hemocytometer.\nThe plating efficiency was determined by plating 2×10^3 cells per 100-mm dish, fixing the cells after 6-days with methanol, staining with 0.01% crystal violet and scoring colonies. Colonies were scored for the calculation of plating efficiency as percent of the inoculated cell number. The plating efficiencies were approximately 20%.\nIn the first protocol, actively growing ES cells were trypsinized and plated at 5×10^5 cells per T25 flask and after 1 day preincubation treated for 5 hours with 0.3 mg/ml, 0.4 mg/ml or 0.5 mg/ml ENU (dissolved in medium without FCS by vigorous shaking and filter sterilization with 0.2 μm cellulose acetate filters immediately before use). Control cells and cells which had been treated with ENU were washed three times with PBS and the number of surviving cells determined after 3 days of culture in culture medium by plating 2,000 cells from control and from ENU-treated flasks and counting surviving colonies as described above. […] Surviving EA cells which had been treated with 0.3 mg/ml ENU were subcultured at 3:1 onto 60-mm petri dishes in the presence (set 1) and absence (set 2) of primary embryothic fibroblasts (PMEFs). ES cells grown on PMEFs (set 1) were cultured for 3 days, subcultured at 3:1 onto 60-mm petri dishes without PMEFs, trypsinized, plated at 4×10^5 cells per 100-mm plate without PMEFs and grown for 2 days. ES cells grown in the absence of PMEFs (set 2) were trypsinized-after 5 days in culture and plated at 4×10^5 cells per 100-mm plate without PMEFs. Cells (set 1 and set 2) were subsequently grown for 1 day prior to the addition of 10 μM 6-TG to the culture medium and further incubated for an additional 6 days in the presence of 6-TG. The number of 6-TG resistant colonies was calculated, and individual colonies were separately plated in a 96-well microtiter dish.\n(§1) In the second protocol, actively growing ES cells were trypsinized and plated at two densities (1×10^5 and 0.5×10^5 cells/well) in 24-well tissue culture plates instead of T25 flasks. After a one-day preincubation period, cells were treated for 5 hours with 0.3 mg/ml or 0.4 mg/ml ENU (as described above) and subsequently treated as described in Table 2."}, "[2]": {"settings": "literature statement; cited from earlier work"}, "[3]": {"test_system": "hypoxanthine guanine phosphoribosyltransferase (Hprt) gene in mouse embryonic stem (ES) cells", "assay": "ENU-induced Hprt-inactivating mutations, 6-TG selection, Protocol 1", "format": "cell-based", "settings": "0.3 mg/ml ENU"}, "[4]": {"test_system": "hypoxanthine guanine phosphoribosyltransferase (Hprt) gene in mouse embryonic stem (ES) cells", "assay": "ENU-induced Hprt-inactivating mutations, 6-TG selection, Protocol 2 (24-well plates)", "format": "cell-based", "description": "as §1, with “2. [table]” for “2.”"}}, "note": "“And” between values parts separate entries of the source, which are not always exact repeats. Equal entries are not always repeated. “Also recorded” adds a separate entry of the source.", "data": [{"smiles": "CCN(N=O)C(N)=O", "note": "[ENU, N-ethyl-N-nitrosurea]", "values": [{"measurement": "survival", "setting": "[1]; 0.3 mg/ml ENU", "result": 10, "unit": "%"}, {"measurement": "survival", "setting": "[1]; 0.4 mg/ml ENU", "result": "less than 5%"}, {"measurement": "colonies surviving", "setting": "[1]; 0.4 mg/ml ENU, Plate 3, 5 days after plating, plate discarded", "result": "Discarded, very few"}, {"measurement": "survival", "setting": "[1]; 0.5 mg/ml ENU", "result": 0, "unit": "%"}, {"measurement": "efficiency in generating mutations relative to other agents", "setting": "[2]", "result": "at least 10 fold"}, {"measurement": "Total colonies (+PMEF plates)", "setting": "[3]; 10 μM 6-TG, sum of 6 plates", "result": 21}, {"measurement": "Total colonies (−PMEF plates)", "setting": "[3]; 10 μM 6-TG, sum of 6 plates", "result": 77}, {"measurement": "Mutation Frequency Maximum (−PMEF plates)", "setting": "[3]; Hprt locus", "result": "1/623"}, {"measurement": "No. Surviving Colonies (−PMEF plates), 6-TG selection (Hprt deficient), per plate", "setting": "[3]; set 2 grown without PMEFs, 10 μM 6-TG, plates 1-6", "result": "14 and 15 and 12 and 9"}, {"measurement": "Total colonies", "setting": "[4]; 0.3 mg/ml ENU, Plate 1", "result": "Total: 23 colonies"}, {"measurement": "No. colonies/plate", "setting": "[4]; 0.3 mg/ml ENU, Plate 1, day 16, individual 60-mm dishes", "result": "Plate 2: 3 colonies; also recorded: Plate 3: 5 colonies; also recorded: Plate 5: 1 colony colonies; also recorded: Plate 6: 1 colony colonies; also recorded: Plate 7: 2 colonies; also recorded: Plate 8: 2 colonies; also recorded: Plate 9: 4 colonies"}, {"measurement": "plates that yielded colonies after 6-thioguanine", "setting": "[4]; 0.3 mg/ml ENU, Plate 1, day 16, of 24 dishes", "result": "9 plates yielded colonies,"}, {"measurement": "Total colonies", "setting": "[4]; 0.3 mg/ml ENU, Plate 2", "result": "Total: 12 colonies"}, {"measurement": "No. colonies/plate", "setting": "[4]; 0.3 mg/ml ENU, Plate 2, day 16, individual 60-mm dishes", "result": "Plate 2: 1 colony colonies; also recorded: Plate 3: 2 colonies; also recorded: Plate 4: 1 colony colonies; also recorded: Plate 5: 4 colonies; also recorded: Plate 6: 2 colonies"}, {"measurement": "plates that yielded colonies after 6-thioguanine", "setting": "[4]; 0.3 mg/ml ENU, Plate 2, day 16, of 24 dishes", "result": "6 plates yielded colonies,"}, {"measurement": "Mutation frequency maximum", "setting": "[4]; 0.4 mg/ml ENU, Plate 4", "result": "1/800"}, {"measurement": "Total colonies", "setting": "[4]; 0.4 mg/ml ENU, Plate 4", "result": "Total: 22 colonies"}, {"measurement": "No. colonies/plate", "setting": "[4]; 0.4 mg/ml ENU, Plate 4, day 17, individual 60-mm dishes", "result": "Plate 1: 14 colonies; also recorded: Plate 2: 18 colonies"}, {"measurement": "plates that yielded colonies after 6-thioguanine", "setting": "[4]; 0.4 mg/ml ENU, Plate 4, day 17, of 24 dishes", "result": "2 plates yielded colonies, 22"}]}]}
